Reference: patent US20090068286A1, “METHOD OF TREATING CANCER BY ADMINISTRATION OF 5-SUBSTITUTED NUCLEOSIDES” (RESprotect, GmbH, priority 2007, published 2009)
Each block holds one compound with its values, some of them ahead of it.

Experiments:
[1] = Plasma concentrations of BVDU, BVU and GEM in patients of the dose finding study (HPLC); format: in vivo, human
Experimental: Dose finding study: 22 Patients with advanced pancreatic adenocarcinoma were eligible for treatment in this single arm study. The mean age was 60 years and 73% of patients were males. One patient without progressive disease was excluded from the study for withdrawal of consent after the first cycle. Of the 21 patients left, 15 were in stage IV and 6 in stage III. BVDU was administered in a combination with GEM. On day 1, on day 8 and on day 15 of each 28-day cycle, BVDU was given together with GEM. On days 2-4, on days 8-11, and on days 15-18 of a 28-day cycle, BVDU was given alone in the recovery phase.
The starting dose of BVDU was 4×125 mg/day (total dose of 6,000 mg per treatment cycle) together with a fixed dose of GEM (1,000 mg/M^2). Subsequent total doses of BVDU per cycle were 7,500 mg, 9,000 mg, 10,500 mg, and 12,000 mg again in four patients per cohort. Dosage levels were administered as follows: First dose level: The starting dose of BVDU was 4×125 mg daily given at approximately 08:00 a.m. (1×125 mg BVDU), 12:00 a.m. (1×125 mg BVDU), 04:00 p.m. (1×125 mg BVDU), and 08:00 p.m. (1×125 mg BVDU). These doses were administered on days 1 to 4, days 8 to 11 and days 15 to 18; Second dose level: 1×250 mg+3×125 mg daily; Third dose level. 2×250 mg+2×125 mg daily; Forth dose level: 3×250 mg+1×125 mg daily; and, Fifth dose level: 4×250 mg daily.
Approximately 1 hour after the 08:00 a.m. BVDU-administration on day 1, day 8 and day 15 of a cycle, the GEM infusion started and GEM was infused for 30 minutes.
Analysis of the concentrations of GEM and BVDU (BVDU) as well as analysis of the concentrations of BVU ((E)-5-(2-bromovinyl)uracil, degradation product of BVDU) in plasma samples: 0.5 ml of plasma spiked with about 0.5 μg of 4-Propyl-2-thiouracil (PTU) as internal standard was extracted with 2.5 ml of methanol-acetonitrile (v/v, 1:9) by vigorous mixing for about 1 min. After centrifugation the supernatant was transferred to a beaker and evaporated to dryness at 50° C. under a gentle stream of nitrogen. The residue was dissolved in 1 ml of the solution used as mobile phase by 10 min treatment in an ultrasonic bath. After centrifugation the clear supernatant was used for HPLC-analysis. The concentrations of GEM and BVDU were calculated using a calibration curve with the respective standard substances. The concentrations of BVU were calculated using the calibration curve of BVDU and the determined response factor. Limits of detection: BVDU 20 ng/ml plasma; GEM 30 ng/ml plasma. Limits of quantification: BVDU 60 ng/ml plasma; GEM 100 ng/ml plasma.
Pharmacokinetic Results BVDU: All measurements were performed within 9 hours. Therefore, only the first three intakes of BVDU-tablets were relevant in this context, and as consequence, in dose groups four and five the intake of tablets was identical. When the dose was doubled from 125 mg to 250 mg, the mean maximum BVDU concentration in plasma increased fivefold from 290 (±152) ng/ml to 1549 (±1058) ng/ml (FIG. 10).

[2] = system: AH13r tumor cells; assay: Hoechst 33258/propidium iodide (Hopi) double coloration for apoptosis; format: cell-based, rat; settings: cytostatic
From the text: The indication that the reduction in cell number is based on apoptosis, was detected by means of Hoechst 33258/propidium iodide (Hopi) double coloration.

[3] = system: dimethybenzanthracene (DMBA) induced tumors; assay: Growth of DMBA-induced tumors in SD rats under DOX ± BVDU; format: in vivo, rat; settings: DOX 1 mg/kg
Experimental: (§1) The reduction in toxic side effects of doxorubicin (DOX) was able to be shown in the test with rats (see Table 3). SD rats were treated with dimethybenzanthracene (DMBA). […] During the treatment and one day after each treatment, i.e. in the recovery phase, the animals obtained respectively 15 mg/kg BVDU. The recovery phase in vivo was 6× one day.

[4] = Animal weight of DOX ± BVDU treated rats (toxic side effects); format: in vivo, rat
Experimental: DT-D inactivates ROS and thus protects cells from non-specific ROS and electrophilic attacks. […] DOX treatment alone leads to weight losses because of the toxic side effects. It is certain that only the side effects (possibly the cardiotoxicity characteristic of DOX) are reduced by BVDU but not the toxic effects on the tumor.
as §1

[5] = system: pancreatic cancer; settings: pancreatic cancer patients; cited from earlier work
[6] = system: advanced pancreatic cancer; settings: pivotal study, Glimelius et al. 1996; cited from earlier work
[7] = DMBA-induced tumors, BVDU 15 mg/kg, average of 5-8 rats
[8] = SD rats, DOX 1 mg/kg, BVDU 15 mg/kg, average of 5-8 rats

- Mean maximum BVU concentration ([1]; lower end of the BVDU dose range ("from")): 1525 (±1012) ng/ml
- Mean maximum BVU concentration ([1]; upper end of the BVDU dose range ("to")): 4637 (±1353) ng/ml
Compound: O=c1[nH]cc(/C=C/Br)c(=O)[nH]1 [BVU, (E)-5-(2-bromovinyl)uracil]

Compound: COc1cccc2c1C(=O)c1c(O)c3c(c(O)c1C2=O)C[C@@](O)(C(=O)CO)C[C@@H]3O[C@H]1C[C@H](N)[C@H](O)[C@H](C)O1 [DOX, doxorubicin]
- Apoptosis (HOPI double coloration) [2]: initiate apoptosis
- Relative tumor size Day 1 [3, 7]: 1
- Relative tumor size Day 16 [3, 7]: 1.5
- Growth of DMBA-induced tumors [3]: inhibited in their growth
- Relative animal weight Day 1 [4, 8]: 0
- Relative animal weight Day 16 [4, 8]: −7%
- Animal weight change as index of toxic side effects ([4]; rat, in vivo): weight losses

Compound: Nc1ccn([C@@H]2O[C@H](CO)[C@@H](O)C2(F)F)c(=O)n1 [GEM, gemcitabine]
- Diarrhea [5]: 2%
- One-year survival [5]: 17%
- Overall survival [5]: 5.9 months
- Skin rash [5]: 1%
- Time to progression [5]: 3.55 months
- GEM maximum values with increase of the BVDU dose ([1]; BVDU 125 vs 250 mg, large variability between individual patients): appear to rise
- GEM detectability in plasma ([1]; at the second BVDU intake, 4 hours later): not detectable any more
- Median survival [6]: less than 6 months

Compound: CO[C@@]12[C@H](COC(N)=O)C3=C(C(=O)C(C)=C(N)C3=O)N1C[C@@H]1N[C@@H]12 [MMC, mitomycin C]
- Apoptosis (HOPI double coloration) [2]: initiate apoptosis

Compound: O=C1c2c(O)ccc(O)c2C(=O)c2c(NCCNCCO)ccc(NCCNCCO)c21 [MXA, mitoxantrone]
- Apoptosis (HOPI double coloration) [2]: initiate apoptosis
